Measurements reported in BindingDB's records for doi:10.1016/j.bmcl.2003.08.010 (University of Manchester, 2003).

Assay: Inhibitory activity against Escherichia coli thymidine phosphorylase

In the case of `C=CCNC(=S)NC=C1C(=O)NC(=O)NC1=O` [1-Allyl-3-(2,4,6-trioxo-tetrahydro-pyrimidin-5-ylidenemethyl)-thiourea], the IC50 is reported as 94.8 µM.
